Test results from article PMC8352872, “Biochemical and structural studies of target lectin SapL1 from the emerging opportunistic microfungus Scedosporium apiospermum” (Scientific Reports, 2021).

Assays:
[1] = biological target: T1, SapL1 (Scedosporium apiospermum, UniProt A0A084FYP2); assay: ITC (stoichiometry fixed to […]); type: binding
T1 construct: gene SAPIO_CDS9261; carbohydrate recognition domain, residues 75-369

[2] = biological target: T1, SapL1; assay: (X-ray) and ITC (stoichiometry fixed to […]); type: binding
[3] = biological target: the molecule itself; assay: dynamic light scattering; protein at 1 mg/mL in 50 mM Tris-HCl, 100 mM NaCl, pH 8.5, measured in triplicate after centrifugation; data not shown

C[C@@H]1OC(O)[C@@H](O)[C@H](O)[C@@H]1O (stereo partly drawn) [L-fucose]
Kd [1]: 225 ± 1.52 µM

CO[C@@H]1O[C@@H](C)[C@@H](O)[C@@H](O)[C@@H]1O [α-methyl-L-fucoside, methyl-α-L-fucopyranoside]
Kd [2]: 190 ± 1.44 µM

B1: Scedosporium apiospermum Lectin 1 (SapL1), carbohydrate recognition domain, residues 75-369 (domain or fragment)
chain: MSGVLQISFPAGIAAIRNNSSLRVYEAALDGGVREAQYEGRWAGGKPDNVIATGKIGTPIAATSVGFQYIRVYYVGADNKAREACWDGKGWYTGAFVKDVAPYSSIGAVFLGKNIVVRVYTQNHDNTIQEWVWDSPSTGWTAGANFGAALPGTAIAATSWGAGPYHIRVYFQDTNRNVIESGWDGSGWYTGGLKISNQSPRASLGATSWGESGSSLGIRLYYATQDNLIKEKAWDGGGGWYDGGFQQRSIPGSRVAAIPLPVLRVYLQNGTEVSGITEYAWNSGWVVGQAVLPPA
notes: the first 74 residues of the annotated protein, which the authors suspect to be a misannotation, are left out; In the crystal all 295 amino acids are visible except the N-terminal methionine; also called hypothetical protein XP_016640003.1; source: E. coli BL21trxB (DE3), pProNde vector, purified (IMAC, TEV cleavage, second His-trap pass); not shown: His6, N-terminal, cleaved
stoichiometry N [3]: 2
